Data as given in US20050019315A1, “Odor control compositions and methods” (Novozymes North America, Inc., priority 2003, published 2005).

Assay: Odor panel rating of glucose/gluconic acid solutions inoculated with odorous filtrate
Settings: capped beakers, 40° C., 7 days
Experimental: Another 250 mL of (4) 10 mM glucose was put it in beaker 4. 20 mg protein/L of carbohydrate oxidase (Microdochium nivale carbohydrate oxidase, Novozymes A/S) was added to beaker 4 and it was kept at a 40° C. for 1 hr. 0.5 mL of odorous 3-day filtrate from the aerobic control in Example 2 was added to all of the beakers. The beaker were capped and placed in a 40° C. water bath for 7 days. At the end of the incubation, a panel smelled the samples as described in Example 1.

With `O=C(O)[C@H](O)[C@@H](O)[C@H](O)[C@H](O)CO` [Gluconic Acid, gluconic acid] the “formation of odor (in words)” value was “will not lead to odorous smell” and the “Odor Level” value (0.5 mL odorous filtrate added, rating 1 to 5, 5 worst) was 1.
